Experimental data reported in PMC10215302 (Antibiotics, 2023).
Values after ≈ are worked out from the molar mass of the structure shown. Read-outs that look alike come from different tables or passages of the source.

Key:
[1] = test system: S. aureus SA0077; settings: for MIC values: Table S1: SA0077 Abf (passages on antibiotic-free media)
[2] = test system: S. aureus SA0085; settings: for MIC values: Table S1: SA0085 Abf (passages on antibiotic-free media)
[3] = test system: S. aureus SA0422
[4] = test system: S. aureus SA0736
[5] = test system: S. aureus ATCC 29213
[6] = test system: S. aureus RN4220; settings: for change of MICs on deletion of SACOL1927 (yfhP): S. aureus mutant strain RN4220, allele replacement; for MIC: Table S4: RN4220
[7] = test system: S. aureus derivative strains
[8] = test system: S. aureus (VISA/hVISA isolates; MprF P314L strains); settings: MprF AAS P314L, cited from earlier work
[9] = test system: S. aureus derivative strains; assay type: cell-based, Staphylococcus aureus; settings: AUC of tested strain / AUC of S. aureus Mu50
[10] = SA0077, selecting agent DAP, passage 5
[11] = SA0077, selecting agent DAP, passage 20
[12] = SA0077, selecting agent DAP, passage 40
[13] = SA0077, selecting agent VAN, passage 0
[14] = SA0077, selecting agent VAN, passage 5
[15] = SA0077, selecting agent VAN, passage 20
[16] = SA0077, selecting agent VAN, passage 40
[17] = Table S4: SA0077, strain before selection
[18] = SA0085, selecting agent DAP, passage 5
[19] = SA0085, selecting agent DAP, passage 20
[20] = SA0085, selecting agent DAP, passage 40
[21] = SA0085, selecting agent VAN, passage 0
[22] = SA0085, selecting agent VAN, passage 5
[23] = SA0085, selecting agent VAN, passage 20
[24] = SA0085, selecting agent VAN, passage 40
[25] = Table S4: SA0085, strain before selection
[26] = SA0422, selecting agent DAP, passage 5
[27] = SA0422, selecting agent DAP, passage 20
[28] = SA0422, selecting agent DAP, passage 40
[29] = SA0422, selecting agent VAN, passage 0
[30] = SA0422, selecting agent VAN, passage 5
[31] = SA0422, selecting agent VAN, passage 20
[32] = SA0422, selecting agent VAN, passage 40
[33] = Table S4: SA0422, strain before selection
[34] = SA0736, selecting agent DAP, passage 5
[35] = SA0736, selecting agent DAP, passage 20
[36] = SA0736, selecting agent DAP, passage 40Y (yellow colonies)
[37] = SA0736, selecting agent VAN, passage 0
[38] = SA0736, selecting agent VAN, passage 20
[39] = SA0736, selecting agent VAN, passage 40
[40] = Table S1: SA0736 DAP-W (40 passages on daptomycin, white colonies)
[41] = Table S1: SA0736 DAP-Y (40 passages on daptomycin, yellow colonies)
[42] = Table S4: SA0736, strain before selection
[43] = ATCC 29213, selecting agent DAP, passage 5
[44] = ATCC 29213, selecting agent DAP, passage 20
[45] = ATCC 29213, selecting agent DAP, passage 40
[46] = ATCC 29213, selecting agent VAN, passage 0
[47] = ATCC 29213, selecting agent VAN, passage 5
[48] = ATCC 29213, selecting agent VAN, passage 20
[49] = ATCC 29213, selecting agent VAN, passage 40
[50] = Table S4: ATCC 29213, strain before selection
[51] = Table S1: RN4220 ∆ (strain with deletion in SACOL1927)

CCCCCCCCCC(=O)N[C@@H](Cc1c[nH]c2ccccc12)C(=O)N[C@H](CC(N)=O)C(=O)N[C@@H](CC(=O)O)C(=O)N[C@@H]1C(=O)NCC(=O)N[C@@H](CCCN)C(=O)N[C@@H](CC(=O)O)C(=O)N[C@H](C)C(=O)N[C@@H](CC(=O)O)C(=O)NCC(=O)N[C@H](CO)C(=O)N[C@@H]([C@H](C)CC(=O)O)C(=O)N[C@@H](CC(=O)c2ccccc2N)C(=O)O[C@@H]1C [DAP, daptomycin]
MIC [1, 10]: 0.5 µg/mL (≈ 0.309 µM)
MIC [1, 11]: 8 µg/mL (≈ 4.94 µM)
MIC [1, 12]: 32 µg/mL (≈ 19.7 µM)
MIC [1, 13]: 0.25 µg/mL (≈ 0.154 µM)
MIC [1, 14]: 2 µg/mL (≈ 1.23 µM)
MIC [1, 15]: 2 µg/mL (≈ 1.23 µM)
MIC [1, 16]: 2 µg/mL (≈ 1.23 µM)
MIC values [1]: 0.25 µg/mL (≈ 0.154 µM)
MIC [1, 17]: 0.25 µg/mL (≈ 0.154 µM)
MIC [2, 18]: 0.5 µg/mL (≈ 0.309 µM)
MIC [2, 19]: 32 µg/mL (≈ 19.7 µM)
MIC [2, 20]: >64 µg/mL
MIC [2, 21]: 0.5 µg/mL (≈ 0.309 µM)
MIC [2, 22]: 1 µg/mL (≈ 0.617 µM)
MIC [2, 23]: 2 µg/mL (≈ 1.23 µM)
MIC [2, 24]: 2 µg/mL (≈ 1.23 µM)
MIC values [2]: 0.5 µg/mL (≈ 0.309 µM)
MIC [2, 25]: 0.5 µg/mL (≈ 0.309 µM)
MIC [3, 26]: 8 µg/mL (≈ 4.94 µM)
MIC [3, 27]: 16 µg/mL (≈ 9.87 µM)
MIC [3, 28]: >64 µg/mL
MIC [3, 29]: 0.25 µg/mL (≈ 0.154 µM)
MIC [3, 30]: 1 µg/mL (≈ 0.617 µM)
MIC [3, 31]: 1 µg/mL (≈ 0.617 µM)
MIC [3, 32]: 2 µg/mL (≈ 1.23 µM)
MIC [3, 33]: 0.25 µg/mL (≈ 0.154 µM)
MIC [4, 34]: 1 µg/mL (≈ 0.617 µM)
MIC [4, 35]: 32 µg/mL (≈ 19.7 µM)
MIC [4, 36]: >64 µg/mL
MIC [4, 37]: 0.25 µg/mL (≈ 0.154 µM)
MIC ([4]; SA0736, selecting agent VAN, passage 5): 0.5 µg/mL (≈ 0.309 µM)
MIC [4, 38]: 0.5 µg/mL (≈ 0.309 µM)
MIC [4, 39]: 2 µg/mL (≈ 1.23 µM)
MIC values [4, 40]: > 64 µg/mL
MIC values [4, 41]: > 64 µg/mL
MIC [4, 42]: 0.25 µg/mL (≈ 0.154 µM)
MIC [5, 43]: 0.5 µg/mL (≈ 0.309 µM)
MIC [5, 44]: 32 µg/mL (≈ 19.7 µM)
MIC [5, 45]: 64 µg/mL (≈ 39.5 µM)
MIC [5, 46]: 0.125 µg/mL (≈ 0.0771 µM)
MIC [5, 47]: 0.25 µg/mL (≈ 0.154 µM)
MIC [5, 48]: 2 µg/mL (≈ 1.23 µM)
MIC [5, 49]: 2 µg/mL (≈ 1.23 µM)
MIC [5, 50]: 0.125 µg/mL (≈ 0.0771 µM)
change of MICs on deletion of SACOL1927 (yfhP) [6]: did not change
MIC values ([6]; Table S1: RN4220 WT): 0.25 µg/mL (≈ 0.154 µM)
MIC values [6, 51]: 0.25 µg/mL (≈ 0.154 µM)
MIC [6]: 0.25 µg/mL (≈ 0.154 µM)
MIC range by the 20th passage ([7]; all strains, 20th passage of daptomycin selection): 8 to 32 µg/mL
MIC correlated with mprF mutations ([7]; daptomycin-selected derivatives, after the 20th passage): up to 32 mg/L
MICs in derivatives of all strains after selection with vancomycin ([7]; selection with vancomycin, derivatives of all strains): 2 µg/mL
MIC ([8]; moderate increase): 2 µg/mL (≈ 1.23 µM)
effect on MIC [8]: no effect

vancomycin
PAP AUC ratio ([9]; after 40 passages in vancomycin): 1.0–1.2
PAP AUC ratio ([9]; after daptomycin selection): 0.4–1.0
MIC [1, 10]: 2 µg/mL
MIC [1, 11]: 4 µg/mL
MIC [1, 12]: 4 µg/mL
MIC [1, 13]: 1 µg/mL
MIC [1, 14]: 4 µg/mL
MIC [1, 15]: 8 µg/mL
MIC [1, 16]: 8 µg/mL
MIC values [1]: 1 µg/mL
MIC [1, 17]: 1 µg/mL
MIC [2, 18]: 1 µg/mL
MIC [2, 19]: 2 µg/mL
MIC [2, 20]: 4 µg/mL
MIC [2, 21]: 1 µg/mL
MIC [2, 22]: 4 µg/mL
MIC [2, 23]: 4 µg/mL
MIC [2, 24]: 8 µg/mL
MIC values [2]: 1 µg/mL
MIC [2, 25]: 1 µg/mL
MIC [3, 26]: 1 µg/mL
MIC [3, 27]: 2 µg/mL
MIC [3, 28]: 2 µg/mL
MIC [3, 29]: 1 µg/mL
MIC [3, 30]: 2 µg/mL
MIC [3, 31]: 4 µg/mL
MIC [3, 32]: 4 µg/mL
MIC [3, 33]: 1 µg/mL
MIC [4, 34]: 0.5 µg/mL
MIC [4, 35]: 4 µg/mL
MIC ([4]; SA0736, selecting agent DAP, passage 40W (white colonies)): 4 µg/mL
MIC [4, 36]: 4 µg/mL
MIC [4, 37]: 0.5 µg/mL
MIC [4, 38]: 8 µg/mL
MIC [4, 39]: 8 µg/mL
MIC values [4, 40]: 4 µg/mL
MIC values [4, 41]: 4 µg/mL
MIC [4, 42]: 0.5 µg/mL
MIC [5, 43]: 1 µg/mL
MIC [5, 44]: 2 µg/mL
MIC [5, 45]: 4 µg/mL
MIC [5, 46]: 0.25 µg/mL
MIC [5, 47]: 0.25 µg/mL
MIC [5, 48]: 2 µg/mL
MIC [5, 49]: 8 µg/mL
MIC [5, 50]: 0.25 µg/mL
change of MICs on deletion of SACOL1927 (yfhP) [6]: did not change
MIC values ([6]; Table S1: RN4220 WT): 0.5 µg/mL
MIC values [6, 51]: 0.5 µg/mL
MIC [6]: 0.5 µg/mL
MICs of derivative strains at the end of selection with vancomycin ([7]; derivative strains, end of vancomycin selection): 4 to 8 µg/mL
change of MICs after 10 passages in antibiotic-free media ([7]; vancomycin-selected derivatives, stability test): decreased by one dilution
